Experimental data from US20260123631A1, “NATURAL PORPHIN SALT AND USE THEREOF AS PLANT GROWTH REGULATOR AND PLANT IMMUNITY INDUCER” (NANJING BOSTEC BIOLOGICAL ENGINEERING CO., LTD, priority 2022, published 2026).

Assays:
rice = experiment: Germination of rice under salt stress; type: in vivo, rice (Nanjing 9108); conditions: sample 0.2 ppm; for Increase of root weight-promoting speed / Increase of root-shoot ratio / Increase of seedling weight-promoting rate: versus 4.5 g/L NaCl without sample
Protocol: The selected full seeds of rice (variety: Nanjing 9108) were soaked in a sodium hypochlorite solution to allow disinfection for 2 min to 3 min, and then rinsed with clear water twice to three times. After the rinsing, 50 full seeds were selected and fully immersed in a prepared seed-soaking solution at 25° C. for 48 h. The soaked seeds were transferred to a plastic box with two paper towel layers tiled. The germination bed was moistened with a salt solution at a concentration corresponding to each treatment. The seeds were incubated in a 25° C. incubator with a light cycle of 12 h light/12 h dark and a humidity of 70%, during which the germination bed was always kept moist. The germination of rice seeds and the growth of seedlings were observed and recorded day by day. A germination rate of each treatment was recorded on […], and a number of normal seedlings was counted on day 14. 10 seeds were randomly selected from each treatment to measure a seedling length, a root length, a root number, a root weight, and a seedling weight. The germination energy was counted on day 5 and a germination rate was counted on day 14.

wheat = experiment: Spraying on wheat to increase a yield; type: in vivo, wheat (Huaimai 35)
Protocol: Crop: Huaimai 35. […] On Jun. 11, 2021, the harvesting was conducted throughout the field at a time.

mung bean seedlings = experiment: Inducing adventitious roots from hypocotyls of mung bean; type: in vivo; conditions: day 7
Protocol: Test solution preparation: 8 mL of a commercially-available STANLEY universal hydroponic nutrient solution was taken and diluted with tap water to 3,200 mL (400-fold dilution) to produce a dilute nutrient solution. An appropriate amount of each of salt samples such as protoporphyrin disodium and potassium chlorhematin was weighed and prepared with the dilute nutrient solution into 0.010 ppm and 0.1 ppm sample test solutions, and 150 mL of each test solution was taken. 150 mL of the dilute nutrient solution was taken as a blank control. The test solutions and the control solution were placed in brown bottles, and the brown bottles were sealed with a black film. Mung bean seedlings with uniform growth and a seedling height of 7 cm to 8 cm were selected, and cut at 3 cm below a first true leaf node. 8 mung bean seedlings were inserted into each bottle (with roots removed) to make lower radicles soaked in a solution. Mung bean seedlings were treated at room temperature of 20° C. to 25° C. for 7 d in total, during which the solution was changed every 2 d. On day 2 to day 3 of the treatment, there was a significant difference. On day 7, the observation and determination were conducted. An average adventitious root number and an average total adventitious root length for each seedling were calculated, and results were shown in the following table: […]

rice seedlings = experiment: Spraying on drought rice seedlings; type: in vivo, rice (Huiliangyou 473)
Protocol: Method: Full rice seeds were selected, disinfected with 6% sodium hypochlorite for 2 min to 3 min, then rinsed with water, soaked in clear water at room temperature (30±1° C.) until the germination was started, and then transferred to seedling trays to raise seedlings. About 15 d later, rice seedlings with consistent growth were selected and transferred into buckets to allow further growth, with 3 holes per bucket and 2 plants per hole. A soil was a clay loam. Before transplanting, the soil was crushed, sieved, and thoroughly mixed. […] The water, fertilizers, pests, and diseases during the cultivation in the seedling trays were uniformly managed.
Drought model: The transplanting was conducted on Aug. 18, 2020. The next day (August 19), the natural drought and sample-spraying treatment were started for rice seedlings. A soil moisture content was determined by the NY/T 52-1987 method.
After the drought stress and sample-spraying were started at a tillering stage (September 19) of rice, a chlorophyll content (mg/g) in leaves was detected twice on day 3 and day 6 (September 21 and September 25), respectively.

[1] = Stability of sample solutions in the dark/under light; type: physicochemical; conditions: under light 30,000 lux, salts in water, acidic reference in 30% to 50% ethanol
In short: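 Salt in water, or acidic reference in 30–50% aqueous ethanol, at about 10 ppm; UV absorbance scanned 200–800 nm at 0, 1, 2, 3 h, stored at 25° C dark or under 30,000 lux light. Relative content = max-peak absorbance at each time divided by 0 h value (100%).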

chlorophyllase = experiment: In vitro chlorophyllase-inhibiting activity test; type: biochemical, mung bean; conditions: substrate chlorophyll 120 ppm, sample 0.3 ppm to 30.0 ppm
Protocol: A chlorophyllase inhibition rate of a salt sample solution at each concentration was determined, and an IC50 value for a chlorophyllase inhibition activity of a salt sample was calculated.

[2] = Water solubility of the prepared salts; type: physicochemical
[3] = 3 mg/mu sprayed 3 times (0.2, 0.1, 0.1 ppm)

potassium iron chlorin [Example 20]
Average germination time (rice; NaCl 0 g/L): 3.10 D | Dry root weight (rice; NaCl 0 g/L): 0.0587 g/plant | Dry seedling weight (rice; NaCl 0 g/L): 0.0543 g | First leaf length (rice; NaCl 0 g/L): 3.84 cm | Germination energy (rice; NaCl 0 g/L): 98.0% | Germination index (rice; NaCl 0 g/L): 52.21% | Germination rate (rice; NaCl 0 g/L): 98.0% | Root length (rice; NaCl 0 g/L): 7.00 cm | Root number (rice; NaCl 0 g/L): 8.67 roots/plant | Root weight-promoting speed (rice; NaCl 0 g/L): 4.19 mg/day | Root-shoot ratio (rice; NaCl 0 g/L): 1.082 | Seedling height (rice; NaCl 0 g/L): 6.83 cm | Seedling weight-promoting rate (rice; NaCl 0 g/L): 3.88 mg/day | Vitality index (rice; NaCl 0 g/L): 16.29% | Increase of root weight-promoting speed (rice; NaCl 0 g/L): 53.04% | Increase of root-shoot ratio (rice; NaCl 0 g/L): 25.31% | Increase of seedling weight-promoting rate (rice; NaCl 0 g/L): 19.27% | Average germination time (rice; NaCl 2.5 g/L): 3.28 D | Dry root weight (rice; NaCl 2.5 g/L): 0.0473 g/plant | Dry seedling weight (rice; NaCl 2.5 g/L): 0.0547 g | First leaf length (rice; NaCl 2.5 g/L): 3.79 cm | Germination energy (rice; NaCl 2.5 g/L): 96.7% | Germination index (rice; NaCl 2.5 g/L): 49.99% | Germination rate (rice; NaCl 2.5 g/L): 97.3% | Root length (rice; NaCl 2.5 g/L): 4.86 cm | Root number (rice; NaCl 2.5 g/L): 7.70 roots/plant | Root weight-promoting speed (rice; NaCl 2.5 g/L): 3.38 mg/day | Root-shoot ratio (rice; NaCl 2.5 g/L): 0.865 | Seedling height (rice; NaCl 2.5 g/L): 6.68 cm | Seedling weight-promoting rate (rice; NaCl 2.5 g/L): 3.90 mg/day | Vitality index (rice; NaCl 2.5 g/L): 14.38% | Increase of root weight-promoting speed (rice; NaCl 2.5 g/L): 23.48% | Increase of root-shoot ratio (rice; NaCl 2.5 g/L): 0.15% | Increase of seedling weight-promoting rate (rice; NaCl 2.5 g/L): 20% | Average germination time (rice; NaCl 4.5 g/L): 3.16 D | Dry root weight (rice; NaCl 4.5 g/L): 0.0480 g/plant | Dry seedling weight (rice; NaCl 4.5 g/L): 0.0580 g | First leaf length (rice; NaCl 4.5 g/L): 3.88 cm | Germination energy (rice; NaCl 4.5 g/L): 97.3% | Germination index (rice; NaCl 4.5 g/L): 50.89% | Germination rate (rice; NaCl 4.5 g/L): 97.3% | Root length (rice; NaCl 4.5 g/L): 5.00 cm | Root number (rice; NaCl 4.5 g/L): 7.17 roots/plant | Root weight-promoting speed (rice; NaCl 4.5 g/L): 3.43 mg/day | Root-shoot ratio (rice; NaCl 4.5 g/L): 0.836 | Seedling height (rice; NaCl 4.5 g/L): 6.71 cm | Seedling weight-promoting rate (rice; NaCl 4.5 g/L): 4.14 mg/day | Vitality index (rice; NaCl 4.5 g/L): 15.12% | Increase of root weight-promoting speed (rice; NaCl 4.5 g/L): 25.22% | Increase of root-shoot ratio (rice; NaCl 4.5 g/L): −3.17% | Increase of seedling weight-promoting rate (rice; NaCl 4.5 g/L): 27.32% | Actual yield per mu (wheat; [3]): 601.5 kg | Ear number per mu (wheat; [3]): 31.9 10,000 | Grain number per ear (wheat; [3]): 35.0 grains/ear | Thousand-grain weight (wheat; [3]): 53.9 g | Yield increase rate per mu (wheat; 3 mg/mu sprayed 3 times, versus clear water): 7.60% | Adventitious root number (mung bean seedlings; 0.01 ppm): 15.05 root/seedling | Total adventitious root length (mung bean seedlings; 0.01 ppm): 24.56 cm/seedling | Adventitious root number (mung bean seedlings; 0.1 ppm): 14.54 root/seedling | Total adventitious root length (mung bean seedlings; 0.1 ppm): 23.55 cm/seedling | Change rate of chlorophyll content (rice seedlings; 0.002 ppm, Day 3): 9.49% | Chlorophyll content in rice leaves (rice seedlings; 0.002 ppm, Day 3): 3.69 mg/g | Change rate of chlorophyll content (rice seedlings; 0.002 ppm, Day 6): 42.96% | Chlorophyll content in rice leaves (rice seedlings; 0.002 ppm, Day 6): 3.86 mg/g | Change rate of chlorophyll content (rice seedlings; 0.05 ppm, Day 3): 29.67% | Chlorophyll content in rice leaves (rice seedlings; 0.05 ppm, Day 3): 4.37 mg/g | Change rate of chlorophyll content (rice seedlings; 0.05 ppm, Day 6): 63.70% | Chlorophyll content in rice leaves (rice seedlings; 0.05 ppm, Day 6): 4.42 mg/g | Relative content ([1]; 1 h): 70.13% | Relative content ([1]; 2 h): 62.66% | Relative content ([1]; 3 h): 59.17% | IC50 for chlorophyllase inhibition activity (chlorophyllase): 5.07 ppm | solubility in water [2]: easily soluble
